Test results as given in PMC7195871 (ACS synthetic biology, 2018).

Columns and labels:
[1] = target: T1, PCM-F (pivalyl-CoA mutase fusion protein) (Xanthobacter versatilis, UniProt A7IQE5+A7IQE6); assay: mutase conversion assay in crude E. coli lysate; format: biochemical; conditions: vitamin B12-dependent mutase; without G-protein chaperone
T1 sequence (A7IQE5 1-559): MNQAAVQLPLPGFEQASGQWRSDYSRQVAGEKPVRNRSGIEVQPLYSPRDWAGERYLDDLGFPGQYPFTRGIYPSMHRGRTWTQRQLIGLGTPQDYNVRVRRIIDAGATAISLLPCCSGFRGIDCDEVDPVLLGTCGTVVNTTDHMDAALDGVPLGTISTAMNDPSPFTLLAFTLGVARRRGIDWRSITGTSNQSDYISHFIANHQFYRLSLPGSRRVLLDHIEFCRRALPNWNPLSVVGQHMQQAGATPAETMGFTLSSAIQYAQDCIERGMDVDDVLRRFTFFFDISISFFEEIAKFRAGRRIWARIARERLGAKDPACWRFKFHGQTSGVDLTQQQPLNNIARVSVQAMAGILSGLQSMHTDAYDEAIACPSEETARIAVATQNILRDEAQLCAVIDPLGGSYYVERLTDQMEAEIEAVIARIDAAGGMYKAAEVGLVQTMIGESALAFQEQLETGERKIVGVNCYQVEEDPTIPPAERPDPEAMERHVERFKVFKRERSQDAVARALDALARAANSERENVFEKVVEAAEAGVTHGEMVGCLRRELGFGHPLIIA
T1 sequence (A7IQE6 1-148): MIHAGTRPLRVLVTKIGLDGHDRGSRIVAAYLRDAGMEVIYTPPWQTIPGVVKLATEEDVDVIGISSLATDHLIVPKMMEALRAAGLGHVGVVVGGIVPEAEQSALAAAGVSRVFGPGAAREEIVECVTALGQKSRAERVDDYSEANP

Ralstonia sp. ADH = target: T2, Ralstonia sp. ADH (Ralstonia sp. DSMZ 6428, UniProt C0IR58); assay: alcohol dehydrogenase assay, aldehyde reduction; format: biochemical; conditions: reduction of pivaldehyde to pivalcohol
T2 sequence (C0IR58 1-249): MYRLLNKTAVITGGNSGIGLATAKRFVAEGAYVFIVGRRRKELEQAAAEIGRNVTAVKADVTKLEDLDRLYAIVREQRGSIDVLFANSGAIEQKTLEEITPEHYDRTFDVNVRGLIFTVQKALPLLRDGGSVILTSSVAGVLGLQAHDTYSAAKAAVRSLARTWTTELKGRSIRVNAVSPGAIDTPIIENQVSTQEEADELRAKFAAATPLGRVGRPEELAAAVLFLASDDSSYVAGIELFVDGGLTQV

Structure (SMILES)	mutase conversion assay in crude E. coli lysate [1]	alcohol dehydrogenase assay, aldehyde reduction (Ralstonia sp. ADH)
CC(C)CC(=O)SCCNC(=O)CCNC(=O)[C@H](O)C(C)(C)COP(=O)(O)OP(=O)(O)OC[C@H]1O[C@@H](n2cnc3c(N)ncnc32)[C@H](O)[C@@H]1OP(=O)(O)O [isovaleryl-CoA]	significant activity in converting isovaleryl-CoA to pivalyl-CoA in crude cell lysates	
CC(C)(C)C=O [pivaldehyde]		Ralstonia sp. ADH showed the highest activity toward pivaldehyde
CC(C)(C)C(=O)SCCNC(=O)CCNC(=O)[C@H](O)C(C)(C)COP(=O)(O)OP(=O)(O)OC[C@H]1O[C@@H](n2cnc3c(N)ncnc32)[C@H](O)[C@@H]1OP(=O)(O)O [pivalyl-CoA]	significant activity in converting isovaleryl-CoA to pivalyl-CoA in crude cell lysates	
